Calls of active or inactive are those of the source. No cut-off for these calls is given here.
Columns and labels:
[1] = Cytotoxicity against human Jurkat T cells assessed as reduction in cell viability at 200 uM after 24 hrs by tryphan blue assay
RAW264.7 [2] = details: Mus musculus, at 200 µM
Description: Antiinflammatory activity in mouse RAW264.7 cells assessed as inhibition of LPS-induced NO production at 200 uM preincubated for 1 hr before LPS challenge measured after 24 hrs by Griess method

[3] = Induction of H2S release in phosphate buffer at 200 uM using 5,5'-dithiobis-(2-nitrobenzoic acid)
RAW264.7 [4] = details: Mus musculus, at 200 µM; remark: listed apart in the source
Description: Antiinflammatory activity in mouse RAW264.7 cells assessed as inhibition of LPS-induced PGE2 production at 200 uM preincubated for 1 hr before LPS challenge measured after 24 hrs by ELISA

COc1ccc(P([O-])(=S)N2CCOCC2)cc1.[K+] (centres undefined)
Activity [1]: Non-toxic | inhibition (RAW264.7 [2]): inactive | Activity [3]: Not Active | inhibition (RAW264.7 [4]): inactive

— ChEMBL document CHEMBL3751739, “Investigating the generation of hydrogen sulfide from the phosphonamidodithioate slow-release donor GYY4137” (Medchemcomm, 2015)
